Read-outs that look alike come from different tables or passages of the source.
What was measured:
[1] = plasma pharmacokinetics in Japanese patients (HPLC-MS/MS); type: in vivo, human; details: for AUC(0-t) / concentration at 48 h / Cmax / Tmax / half-life: human, plasma, oral; for half-life: read-out: Apparent terminal t½ (converted)
Experimental: Blood samples for the QOD dosing schedule were collected for PK analyses just before and 2, 4, 6, 10, 24, and 48 h after MK-2206 dosing on days 1 and 27 of Cycle 1. After the final dose of MK-2206 during Cycle 1, blood samples were drawn 96, 144, and 192 h postdose during the 1-week rest period. Samples were also drawn directly before MK-2206 treatment on days 7, 15, and 21. Blood samples for the QW dosing schedule were collected for PK analyses just before and 2, 4, 6, 10, 24, 48, and 96 h after MK-2206 dosing on days 1 and 22 of Cycle 1. After the final dose of MK-2206 in Cycle 1, blood samples were drawn 168 and 240 h postdose during the 1-week rest period. Samples were also drawn directly before MK-2206 treatment on days 8 and 15. The blood samples were centrifuged, and the plasma was separated and stored at −20 °C. The plasma concentrations were analyzed using high-performance liquid chromatography with tandem mass spectroscopy (HPLC–MS/MS) at Merck Research Labs, West Point, PA.
PK differences were observed after exposure to MK-2206 in Japanese patients, compared with non-Japanese patients. Consequently, the PK data were analyzed using t tests and nonparametric Wilcoxon–Mann–Whitney tests because of potential differences in variance. […] No differences in Tmax were observed.

advanced solid tumors = experiment: tumor response according to RECIST version 1.0 in Japanese patients; type: in vivo, human
Experimental: The anti-tumor activity was evaluated at baseline and every 6 weeks according to the Response Evaluation Criteria In Solid Tumors (RECIST), version 1.0.

[2] = non-Japanese patients; cited from earlier work
AKT pathway = test system: AKT pathway; set-up: method as in PMID 25239610; details: continuous QOD and intermittent QW dosing, serially obtained tumor and platelet-rich plasma; cited from earlier work

For `NC1(c2ccc(-c3nc4ccn5c(=O)[nH]nc5c4cc3-c3ccccc3)cc2)CCC1` [MK-2206], the “Tmax First dose” value ([1]; 45 mg QOD (n = 3), Day 1, median (min–max)) was 4.0 (4.0–6.0) h, the “Apparent terminal t½” value ([1]; 45 mg QOD (n = 3), harmonic mean ± pseudo SD) was 79.6 ± 8.5 h and the “GMR C48-h” value ([1]; 45 mg QOD, geometric mean ratio CDay27/CDay1) was 5.02. The “Tmax Last dose” value ([1]; 60 mg QOD (n = 9), Day 27, median (min–max)) was 6.0 (2.0–10.0) h, the “GMR C48-h” value ([1]; 60 mg QOD, geometric mean ratio CDay27/CDay1) was 3.68 and the “GMR C48-h” value ([1]; 135 mg QW, geometric mean ratio CDay22/CDay1) was 1.25. The “GMR C48-h” value ([1]; 200 mg QW, geometric mean ratio CDay22/CDay1) was 1.78, the “mean exposure values (Cmax and AUC), Japanese versus non-Japanese patients” value ([1]; 45- and 60-mg QOD and 200-mg QW cohorts, higher) was 1.4–1.9 fold and the “mean exposure values (Cmax and AUC), Japanese versus non-Japanese patients” value ([1]; 135-mg QW cohort, lower) was 0.7–1.3. The “AUC, Cmax and Ctrough versus non-Japanese patients” value ([1]; 200-mg QW cohort, P < 0.05) was “significantly higher”, the AUC(0-t) ([1]; 45 mg, 45 mg QOD (n = 3), Day 1, AUC0–48h, geometric mean (coefficient of variation), read-out: AUCt First dose) was 1.85 µM·h and the concentration at 48 h ([1]; 45 mg, 45 mg QOD (n = 3), Day 1, geometric mean (coefficient of variation), read-out: C48-h First dose) was 28.8 nM. For the same compound, the Cmax ([1]; 45 mg, 45 mg QOD (n = 3), Day 1, geometric mean (coefficient of variation), read-out: Cmax First dose) was 60.5 nM, the AUC(0-t) ([1]; 45 mg, 45 mg QOD (n = 3), Day 27, AUC0–48h, geometric mean (coefficient of variation), read-out: AUCt Last dose) was 8.49 µM·h and the concentration at 48 h ([1]; 45 mg, 45 mg QOD (n = 3), Day 27, geometric mean (coefficient of variation), read-out: C48-h Last dose) was 144 nM. For the same compound, the Cmax ([1]; 45 mg, 45 mg QOD (n = 3), Day 27, geometric mean (coefficient of variation), read-out: Cmax Last dose) was 214 nM, the AUC(0-t) ([1]; 60 mg, 60 mg QOD (n = 9), Day 1, AUC0–48h, geometric mean (coefficient of variation), read-out: AUCt First dose) was 2.72 µM·h and the concentration at 48 h ([1]; 60 mg, 60 mg QOD (n = 9), Day 1, geometric mean (coefficient of variation), read-out: C48-h First dose) was 40.6 nM. It also gave a Cmax ([1]; 60 mg, 60 mg QOD (n = 9), Day 1, geometric mean (coefficient of variation), read-out: Cmax First dose) of 95.9 nM, an AUC(0-t) ([1]; 60 mg, 60 mg QOD (n = 9), Day 27, AUC0–48h, geometric mean (coefficient of variation), read-out: AUCt Last dose) of 9.69 µM·h and a concentration at 48 h ([1]; 60 mg, 60 mg QOD (n = 9), Day 27, geometric mean (coefficient of variation), read-out: C48-h Last dose) of 152 nM. It also gave a Cmax ([1]; 60 mg, 60 mg QOD (n = 9), Day 27, geometric mean (coefficient of variation), read-out: Cmax Last dose) of 277 nM, a Tmax ([1]; 60 mg, QOD dosing (45 or 60 mg), Japanese patients, read-out: median Tmax) of 4 to 6 h and an AUC(0-t) ([1]; 135 mg, 135 mg QW (n = 3), Day 1, AUC0–168h, geometric mean (coefficient of variation), read-out: AUCt First dose) of 9.68 µM·h. It also gave a concentration at 48 h ([1]; 135 mg, 135 mg QW (n = 3), Day 1, geometric mean (coefficient of variation), read-out: C48-h First dose) of 83.2 nM, a Cmax ([1]; 135 mg, 135 mg QW (n = 3), Day 1, geometric mean (coefficient of variation), read-out: Cmax First dose) of 234 nM and an AUC(0-t) ([1]; 135 mg, 135 mg QW (n = 3), Day 22, AUC0–168h, geometric mean (coefficient of variation), read-out: AUCt Last dose) of 12.8 µM·h. The concentration at 48 h ([1]; 135 mg, 135 mg QW (n = 3), Day 22, geometric mean (coefficient of variation), read-out: C48-h Last dose) was 104 nM, the Cmax ([1]; 135 mg, 135 mg QW (n = 3), Day 22, geometric mean (coefficient of variation), read-out: Cmax Last dose) was 244 nM and the AUC(0-t) ([1]; 135 mg, 135 mg QW, Day 22, read-out: AUC0–48h) was 12.8 µM·h. It also gave an AUC(0-t) ([1]; 200 mg, 200 mg QW (n = 9), Day 1, AUC0–168h, geometric mean (coefficient of variation), read-out: AUCt First dose) of 24.3 µM·h, a concentration at 48 h ([1]; 200 mg, 200 mg QW (n = 9), Day 1, geometric mean (coefficient of variation), read-out: C48-h First dose) of 186 nM and a Cmax ([1]; 200 mg, 200 mg QW (n = 9), Day 1, geometric mean (coefficient of variation), read-out: Cmax First dose) of 439 nM. The AUC(0-t) ([1]; 200 mg, 200 mg QW (n = 9), Day 22, AUC0–168h, geometric mean (coefficient of variation), read-out: AUCt Last dose) was 37.6 µM·h, the concentration at 48 h ([1]; 200 mg, 200 mg QW (n = 9), Day 22, geometric mean (coefficient of variation), read-out: C48-h Last dose) was 302 nM and the Cmax ([1]; 200 mg, 200 mg QW (n = 9), Day 22, geometric mean (coefficient of variation), read-out: Cmax Last dose) was 571 nM. It also gave a Tmax ([1]; 200 mg, 200 mg QW (n = 9), Day 22, median (min–max), read-out: Tmax Last dose) of 5 h, an AUC(0-t) ([1]; 200 mg, 200 mg QW, Day 22, read-out: AUC0–48h) of 37.6 µM·h and a Tmax ([1]; 200 mg, QW dosing (135 and 200 mg), Japanese patients, read-out: median Tmax) of 4 to 6 h. For the same compound, the half-life ([1]; 60 mg QOD (n = 9), harmonic mean ± pseudo SD) was 71.8 ± 8.9 h, the half-life ([1]; 135 mg QW (n = 3), harmonic mean ± pseudo SD) was 69.3 ± 8.9 h and the half-life ([1]; 200 mg QW (n = 9), harmonic mean ± pseudo SD) was 75.6 ± 9.7 h. The “tumor responses (RECIST 1.0)” value (advanced solid tumors; 24 patients evaluated) was “no tumor responses”, the “patients with SD lasting longer than 4 months” value (advanced solid tumors; all cohorts) was 6 of the 24 and the “patients with SD lasting longer than 4 months, percent” value (advanced solid tumors; all cohorts) was 25%. For the same compound, the “patients with SD for 6 months or longer” value (advanced solid tumors; one mediastinal tumor, one esophageal cancer) was “two patients”, the “patients with stable disease (SD) for 4 months or longer” value (advanced solid tumors; two cervical cancer, one leiomyosarcoma, one breast cancer) was “Four patients” and the “apparent terminal half-life (t½)” value [2] was 60 to 90 h. For the same compound, the terminal elimination half-life [2] was 60 to 80 h and the AKT pathway blockade (AKT pathway) was “Significant AKT pathway blockade”.
